# Test results taken from patent US5990146A, “Benzimidazoles for inhibiting protein tyrosine kinase mediated cellular proliferation” (Warner-Lambert Company, priority 1998, dated 1999).
# Counter-ions that a name gives are not always drawn.
# Columns and labels:
# Assay type in all cases: biochemical
# insulin receptor (INSr) = biological target: T1, insulin receptor (INSr) (Homo sapiens, UniProt P06213); experiment: Insulin receptor kinase assay; conditions: Table 1; as for EGF receptor with 10 mM manganese chloride
# T1 construct: An assay using the intracellular kinase domains of insulin receptor (INSr) is performed
# T1 sequence (P06213 1023-1298 limits assumed, species assumed): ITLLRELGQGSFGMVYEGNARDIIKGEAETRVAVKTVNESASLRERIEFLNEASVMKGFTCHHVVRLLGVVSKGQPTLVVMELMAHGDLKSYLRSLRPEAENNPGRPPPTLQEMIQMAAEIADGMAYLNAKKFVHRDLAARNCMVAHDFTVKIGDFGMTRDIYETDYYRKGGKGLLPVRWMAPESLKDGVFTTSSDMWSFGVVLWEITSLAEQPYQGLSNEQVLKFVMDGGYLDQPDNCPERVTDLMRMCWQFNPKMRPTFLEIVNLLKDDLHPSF
# [1] = biological target: T2, Human EGF receptor tyrosine kinase (Homo sapiens, UniProt P00533); experiment: EGFr tyrosine kinase assay; conditions: Table 1; 10 μM ATP, 25° C., 10 minutes
# T2 construct: Human EGF receptor tyrosine kinase is isolated from A431 human epidermoid carcinoma cells; endogenous in cells; host or cells: A431 human epidermoid carcinoma cells (detergent lysate, fast Q sepharose fractions)
# T2 sequence (P00533 25-1210): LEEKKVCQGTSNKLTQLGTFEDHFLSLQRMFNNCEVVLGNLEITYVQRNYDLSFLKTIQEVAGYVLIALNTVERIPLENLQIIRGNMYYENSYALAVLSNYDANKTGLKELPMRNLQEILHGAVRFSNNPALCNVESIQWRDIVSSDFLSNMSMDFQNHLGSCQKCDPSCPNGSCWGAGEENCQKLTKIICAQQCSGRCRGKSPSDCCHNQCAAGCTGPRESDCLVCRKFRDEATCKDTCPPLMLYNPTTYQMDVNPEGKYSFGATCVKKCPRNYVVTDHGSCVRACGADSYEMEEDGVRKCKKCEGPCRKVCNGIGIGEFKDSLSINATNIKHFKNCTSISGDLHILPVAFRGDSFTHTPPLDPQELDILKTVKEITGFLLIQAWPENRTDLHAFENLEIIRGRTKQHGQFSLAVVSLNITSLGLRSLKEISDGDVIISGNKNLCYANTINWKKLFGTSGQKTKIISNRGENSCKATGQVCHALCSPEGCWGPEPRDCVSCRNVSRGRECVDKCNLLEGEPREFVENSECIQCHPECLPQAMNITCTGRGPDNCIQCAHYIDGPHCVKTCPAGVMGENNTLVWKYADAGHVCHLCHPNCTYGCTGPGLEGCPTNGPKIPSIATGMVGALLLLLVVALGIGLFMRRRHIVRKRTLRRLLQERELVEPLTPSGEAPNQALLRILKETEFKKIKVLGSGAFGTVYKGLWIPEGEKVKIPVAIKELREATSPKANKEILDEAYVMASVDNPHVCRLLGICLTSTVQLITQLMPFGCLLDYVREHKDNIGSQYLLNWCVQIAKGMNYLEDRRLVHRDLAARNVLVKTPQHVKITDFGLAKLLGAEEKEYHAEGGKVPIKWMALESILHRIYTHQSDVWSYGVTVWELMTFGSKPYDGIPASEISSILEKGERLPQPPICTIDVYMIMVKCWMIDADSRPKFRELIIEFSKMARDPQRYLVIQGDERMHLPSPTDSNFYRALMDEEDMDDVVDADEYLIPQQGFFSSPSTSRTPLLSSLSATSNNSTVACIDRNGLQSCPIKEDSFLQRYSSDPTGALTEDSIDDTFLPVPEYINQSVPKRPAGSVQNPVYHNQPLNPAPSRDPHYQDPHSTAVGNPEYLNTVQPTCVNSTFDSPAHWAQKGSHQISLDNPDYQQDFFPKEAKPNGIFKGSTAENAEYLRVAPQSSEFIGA
# c-Src = biological target: T3, c-Src (Homo sapiens, UniProt P12931); experiment: c-Src kinase assay; conditions: Table 1; 5 μM ATP, room temperature, 10 minutes
# T3 construct: made in house; host or cells: baculovirus infected insect cells
# T3 sequence (P12931 whole entry, species assumed): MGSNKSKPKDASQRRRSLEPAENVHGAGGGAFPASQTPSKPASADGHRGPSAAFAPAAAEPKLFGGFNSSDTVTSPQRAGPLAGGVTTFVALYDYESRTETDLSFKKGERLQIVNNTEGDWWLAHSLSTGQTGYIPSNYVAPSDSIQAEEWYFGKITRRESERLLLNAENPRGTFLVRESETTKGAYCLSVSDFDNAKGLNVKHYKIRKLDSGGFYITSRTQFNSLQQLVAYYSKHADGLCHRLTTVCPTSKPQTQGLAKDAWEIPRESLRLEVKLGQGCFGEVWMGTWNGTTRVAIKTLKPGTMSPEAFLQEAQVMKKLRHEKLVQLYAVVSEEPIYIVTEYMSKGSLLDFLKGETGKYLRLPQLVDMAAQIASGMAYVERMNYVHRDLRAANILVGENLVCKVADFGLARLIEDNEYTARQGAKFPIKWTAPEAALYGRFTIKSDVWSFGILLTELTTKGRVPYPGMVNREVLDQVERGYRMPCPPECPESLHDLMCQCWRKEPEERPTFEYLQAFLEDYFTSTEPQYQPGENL
# Description: c-Src kinase is purified from baculovirus infected insect cell lysates using an antipeptide monoclonal antibody directed against the N-terminal 2-17 amino acids as described previously by Fry, et al, Anticancer Drug Design. 9: 331-351 (1994). […] At the end of the lysate incubation, the beads are rinsed 3 times in lysis buffer, resuspended in lysis buffer containing 10% glycerol, and frozen. These latex beads are thawed, rinsed 3 times in assay buffer which is comprised of 40 mM tris pH 7.5, 5 mM magnesium chloride, and suspended in the same buffer. […] The reaction is started at room temperature by addition of the ATP and quenched 10 minutes later by the addition of 125 μL of 30% TCA, 0.1 M sodium pyrophosphate for 15 minutes on ice. The plate is then filtered and the wells washed with two 250-μL aliquots of 15% TCA, 0.1 M pyrophosphate. The filters are punched, counted in a liquid scintillation counter, and the data examined for inhibitory activity in comparison to a known inhibitor such as erbstatin. The method is described more fully in J. Med. Chem., 37: 598-609 (1994).
# [2] = biological target: T4, PDGF receptor tyrosine kinase (mouse PDGF-β) (Mus musculus, UniProt P05622); experiment: PDGFr tyrosine kinase assay (poly glutamate-tyrosine phosphorylation); conditions: Table 1; 10 minutes at 25° C.
# T4 construct: PCR primers are designed to amplify a fragment of DNA that codes for the intracellular tyrosine kinase domain; made in house; host or cells: Sf9 insect cells (baculovirus), cell lysate
# T4 sequence (P05622 599-961 limits assumed): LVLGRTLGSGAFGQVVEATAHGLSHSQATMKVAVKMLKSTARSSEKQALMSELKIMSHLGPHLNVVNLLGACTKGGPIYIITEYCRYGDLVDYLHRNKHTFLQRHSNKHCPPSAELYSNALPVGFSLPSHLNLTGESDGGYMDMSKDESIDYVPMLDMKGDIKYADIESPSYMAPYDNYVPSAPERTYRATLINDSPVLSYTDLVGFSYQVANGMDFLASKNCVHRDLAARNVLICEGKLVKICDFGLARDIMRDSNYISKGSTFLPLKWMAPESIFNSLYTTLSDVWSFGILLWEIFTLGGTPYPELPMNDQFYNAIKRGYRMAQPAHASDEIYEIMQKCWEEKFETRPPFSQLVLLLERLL
# Description: Platelet Derived Growth Factor Receptor (PDGFr) and Fibroblast Growth Factor Receptor (FGFr)
# Full length cDNAs for the mouse PDGF-β and human FGF-1 (flg) receptor tyrosine kinases were obtained from J. Escobedo and are prepared as described in J. Biol. Chem., 262: 1482-1487 (1991). PCR primers are designed to amplify a fragment of DNA that codes for the intracellular tyrosine kinase domain. The fragment is melded into a baculovirus vector, cotransfected with AcMNPV DNA, and the recombinant virus isolated. SF9 insect cells are infected with the virus to overexpress the protein, and the cell lysate is used for the assay.
# The assay is performed in 96-well plates (100 μL/incubation/well), and conditions are optimized to measure the incorporation of ^32 p from [γ^32 P]-ATP into a glutamate-tyrosine copolymer substrate. Briefly, to each well is added 82.5 μL of incubation buffer containing 25 mM Hepes (pH 7.0), 150 mM NaCl, 0.1% Triton X-100, 0.2 mM PMSF, 0.2 mM sodium vanadate, 10 mM manganese chloride, and 750 μg/mL of poly (4:1) glutamate-tyrosine followed by 2.5 μL of inhibitor and 5 μL of enzyme lysate (7.5 μg/μL FGFR-TK or 6.0 μg/μL PDGFR-TK) to initiate the reaction. Following a 10 minute incubation at 25° C., 10 μL of [γ^32 P]-ATP (0.4 μCi plus 50 μM ATP) is added to each well and samples are incubated for an additional 10 minutes at 25° C. The reaction is terminated by the addition of 100 μL of 30% trichloroacetic acid (TCA) containing 20 mM sodium pyrophosphate and precipitation of material onto glass fiber filter mats (Wallac). Filters are washed 3 times with 15% TCA containing 100 mM sodium pyrophosphate and the radioactivity retained on the filters counted in a Wallac 1250 Betaplate reader. Nonspecific activity is defined as radioactivity retained on the filters following incubation of samples with buffer alone (no enzyme). Specific enzymatic activity is defined as total activity (enzyme plus buffer) minus nonspecific activity.
# [3] = biological target: T5, FGF receptor tyrosine kinase (human FGF-1 (flg)) (Homo sapiens, UniProt P11362); experiment: FGFr tyrosine kinase assay (poly glutamate-tyrosine phosphorylation); conditions: Table 1; 10 minutes at 25° C.
# T5 construct: PCR primers are designed to amplify a fragment of DNA that codes for the intracellular tyrosine kinase domain; made in house; host or cells: Sf9 insect cells (baculovirus), cell lysate
# T5 sequence (P11362 478-767 limits assumed): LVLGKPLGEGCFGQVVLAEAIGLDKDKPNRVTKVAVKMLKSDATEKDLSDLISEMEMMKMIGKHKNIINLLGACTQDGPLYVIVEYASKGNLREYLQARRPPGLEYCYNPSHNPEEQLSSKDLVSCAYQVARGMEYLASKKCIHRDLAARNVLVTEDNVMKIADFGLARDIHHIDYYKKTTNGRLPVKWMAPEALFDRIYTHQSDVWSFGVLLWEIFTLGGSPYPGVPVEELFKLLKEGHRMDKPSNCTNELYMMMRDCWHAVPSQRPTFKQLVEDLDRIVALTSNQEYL
# Description: Platelet Derived Growth Factor Receptor (PDGFr) and Fibroblast Growth Factor Receptor (FGFr) Full length cDNAs for the mouse PDGF-β and human FGF-1 (flg) receptor tyrosine kinases were obtained from J. Escobedo and are prepared as described in J. Biol. Chem., 262: 1482-1487 (1991). PCR primers are designed to amplify a fragment of DNA that codes for the intracellular tyrosine kinase domain. The fragment is […] into a baculovirus vector, cotransfected with AcMNPV DNA, and the recombinant virus isolated. SF9 insect cells are infected with the virus to overexpress the protein, and the cell lysate is used for the […] and FGFr The assay is performed in 96-well plates (100 μL/incubation/well), and conditions are optimized to measure the incorporation of ^32 p from [γ^32 P]-ATP into a glutamate-tyrosine copolymer substrate. […] The reaction is terminated by the addition of 100 μL of 30% trichloroacetic acid (TCA) containing 20 mM sodium pyrophosphate and precipitation of material onto glass fiber filter mats (Wallac). Filters are washed 3 times with 15% TCA containing 100 mM sodium pyrophosphate and the radioactivity retained on the filters counted in a Wallac 1250 Betaplate reader. Nonspecific activity is defined as radioactivity retained on the filters following incubation of samples with buffer alone (no enzyme). Specific enzymatic activity is defined as total activity (enzyme plus buffer) minus nonspecific activity.
Structure (SMILES),IC50 (insulin receptor (INSr)) [µM],IC50 [1] [µM],IC50 (c-Src) [µM],IC50 [2] [µM],IC50 [3] [µM]
"NC(=O)c1ccc2c(c1)ncn2-c1ccccc1 [Example 18, 1-Phenylbenzimidazole-5-carboxamide Hydrochloride]",> 50,> 50,< 50,1.6,9.9
"Nc1ccc2c(c1)ncn2-c1ccccc1 [Example 19, 5-Amino-1-phenylbenzimidazole]",> 50,> 50,> 50,2.7,36
"C=CCOc1ccc2c(c1)ncn2-c1ccccc1 [Example 32, 5-Allyloxy-1-phenylbenzimidazole Hydrochloride]",> 50,,> 50,0.6,35
"NCCOc1ccc2c(c1)ncn2-c1ccccc1 [Example 35, 5-(2-Aminoethoxy)-1-phenylbenzimidazole Dihydrochloride]",> 50,,< 50,0.7,27
"CN(C)CCOc1ccc2c(c1)ncn2-c1ccccc1 [Example 36, 5-[2-(N,N-Dimethylamino)ethoxy]-1-phenylbenzimidazole Dihydrochloride]",> 50,,29,1.5,45
"COC(=O)c1ccc2ncn(-c3ccccc3)c2c1 [Example 43, Methyl 1-phenylbenzimidazole-6-carboxylate Hydrochloride]",> 50,> 50,> 50,13,
"COC(=O)c1cc2c(cc1OC)ncn2-c1ccccc1 [Example 51, Methyl 5-methoxy-1-phenylbenzimidazole-6-carboxylate Hydrochloride]",> 50,,33,0.9,50
"COc1cc2ncn(-c3ccccc3)c2cc1CO [Example 53, 6-Hydroxymethyl-5-methoxy-1-phenylbenzimidazole Hydrochloride]",> 50,,50,0.4,12
"COc1ccc2c(c1)ncn2-c1cccs1 [Example 55, 5-Methoxy-1-(2-thienyl)benzimidazole Hydrochloride]",> 50,,> 50,2.5,5.3

# Second part, the molecule after the results:
IC50 (insulin receptor (INSr)) [µM],IC50 [1] [µM],IC50 (c-Src) [µM],IC50 [2] [µM],IC50 [3] [µM],Structure (SMILES)
> 50,> 50,,,,"c1ccc(-n2cnc3ccccc32)cc1 [Example 1, 1-Phenylbenzimidazole]"
> 50,> 50,> 50,3.6,,"Nc1cccc(-n2cnc3ccccc32)c1 [Example 3, 1-(3-Aminophenyl)benzimidazole]"
> 50,> 50,> 50,7.2,> 50,"COC(=O)c1ccc(-n2cnc3ccccc32)cc1 [Example 7, 1-(4-Carbomethoxyphenyl)benzimidazole]"
> 50,50,> 50,4.4,> 50,"Cc1ccc2c(c1)ncn2-c1ccccc1 [Example 12, 5-Methyl-1-phenylbenzimidazole Hydrochloride]"
> 50,> 50,,0.4,6.4,"Oc1ccc2c(c1)ncn2-c1ccccc1 [Example 14, 5-Hydroxy-1-phenylbenzimidazole]"
> 50,> 50,50,9.3,28,"O=C(O)c1ccc2c(c1)ncn2-c1ccccc1 [Example 16, 1-Phenylbenzimidazole-5-carboxylic Acid Hydrochloride]"
> 50,> 50,> 50,0.8,6.6,"COC(=O)c1ccc2c(c1)ncn2-c1ccccc1 [Example 17, Methyl 1-Phenylbenzimidazole-5-carboxylate]"
< 50,> 50,> 50,2.1,,"Oc1ccc2ncn(-c3ccccc3)c2c1 [Example 41, 6-Hydroxy-1-phenylbenzimidazole Hydrochloride]"
